Type in all cases: physicochemical
The nature of data set [1]: Aqueous solubility determination via HPLC calibration curve. As to the method: The solubility determination was made as follows. Each salt suspension was made by adding 50-100 mg of material into a minimum amount of water (0.1-0.2 mL to start). Based on solubility, additional material was added to obtain a salt suspension. The suspension was then filtered through a 0.25 μm filter and the filtrate was further diluted with water and the salt solution was analysed by HPLC. The concentration of the salt solution injected was calculated with the linear equation y=mx+c derived from the calibration curves, with Y referring to the HPLC response obtained for the salt solution injected.

Data set [2] is described as follows: Characterization of the resulting solid form (hygroscopicity).
Data set [3] can be described thus: Competitive slurries (cross-seeding) of free base Forms A and B, solids analysed by XRPD. The note with it: for XRPD form after competitive slurry: Forms A and B equal amounts, 72 h. As to the method: This set of experiments was performed using various solvents and solvent combinations. Cross-seeding experiments were performed over a range of temperatures to help define the relationship between Forms A and B.
Procedure: Twenty-one cross-seeding experiments were performed by adding equal amounts of Forms A and B (weight/weight, total of 25 mg). The mixture was slurried in the given solvent/system (ca. 5 vol. 125 μl) at room temperature, then matured at a specific temperature (5° C., 25° C. or 50° C.) for 72 h. The solids were filtered, air dried and analysed by XRPD. After two days, samples 3 and 15 were completely dry and additional portions of their corresponding solvents were added, (250 μl was added to sample 3 and 248.6 μl was added to sample 15). Solids obtained were characterised by XRPD.

Where [4] appears, read: water, thermodynamic from solid, aqueous (water), filtered suspension, HPLC, read-out: Solubility.
[5] abbreviates: aqueous (water), filtered suspension, HPLC.

In brackets after ≈: the same amount, converted by molar mass. Where two headings read alike, the source gives them in different places. Where only a bound is given, the exact number is not on record here.

As a reminder, the solubility is how much of the substance goes into solution per volume.

Regarding `CC(C)(O)c1nc2ccc(Cl)cc2cc1N.CS(=O)(=O)O` [Compound 1], in data set [1] (setting [4]), the solubility is greater than 1500 mg/mL. Besides, the “Aqueous solubility compared with the other compounds” value in data set [1] (water, comparison in words) was “highest solubility”. For the same compound, the Hygroscopicity result in data set [2] (Form B) was “slightly hygroscopic”.
As for `CC(C)(O)c1nc2ccc(Cl)cc2cc1N.O=S(=O)(O)c1ccccc1` [Compound 2], in data set [2] (Form A), the Hygroscopicity entry is given as “slightly hygroscopic”.
Consider `CC(C)(O)c1nc2ccc(Cl)cc2cc1N.O=S(=O)(O)O` [Compound 3], for which the solubility in data set [1] (thermodynamic from solid, aqueous (water), filtered suspension, HPLC, read-out: Solubility) came out at 421 mg/mL. Moreover, the Hygroscopicity entry in data set [2] (Form A) was “slightly hygroscopic”.
For the compound `CC(C)(O)c1nc2ccc(Cl)cc2cc1N.Cc1ccc(S(=O)(=O)O)cc1` [Compound 4], the solubility in data set [1] (setting [4]) was 11 mg/mL.
`CC(C)(O)c1nc2ccc(Cl)cc2cc1N` [Compound 5] gave a solubility in data set [1] (setting [5]) of 73 mg/mL (≈ 308 mM). The Hygroscopicity entry in data set [2] (Form A) was “slightly hygroscopic”.
In the case of `CC(C)(O)c1nc2ccc(Cl)cc2cc1N.O=C(O)C(=O)O` [Compound 6], the solubility in data set [1] (water, thermodynamic from solid, Solubility) stood at 15.6 mg/mL.
As for `CC(C)(O)c1nc2ccc(Cl)cc2cc1N.O=P(O)(O)O` [Compound 7], in data set [1] (setting [4]), the solubility is greater than 500 mg/mL. Moreover, the Hygroscopicity result in data set [2] (Form A) is “slightly hygroscopic”.
As for `CC(C)(O)c1nc2ccc(Cl)cc2cc1N` [Compound 8], in data set [1] (setting [5]), the solubility is 35 mg/mL (≈ 148 mM).
The compound `CC(C)(O)c1nc2ccc(Cl)cc2cc1N` [Compound A] had a solubility in data set [1] (setting [5]) of less than 0.1 mg/mL. The Hygroscopicity result in data set [2] (Form A) was “non-hygroscopic”; in data set [2] (Form B), “slightly hygroscopic”. In data set [3], the “Transition temperature between Form A and Form B” value was “below 50 °C”. Further, the “XRPD form after competitive slurry” value in data set [3] (Acetone:H2O (10%), 5° C.) is on record as “Form B”; in data set [3] (Acetone:H2O (10%), 25° C.), “Form B”; in data set [3] (Acetone:H2O (10%), 50° C.) it was “Forms A & B”; in data set [3] (Cyclohexane, 5° C.) it was “Forms A & B”; in data set [3] (Cyclohexane, 25° C.), “Form B”; in data set [3] (Cyclohexane, 50° C.), “Form B”. The “XRPD form after competitive slurry” value in data set [3] (EtOAc:Heptane, 5° C.) is listed as “Form B”; in data set [3] (EtOAc:Heptane, 25° C.) it was “Form B”; in data set [3] (EtOAc:Heptane, 50° C.) it was “Form B”; in data set [3] (Heptane, 5° C.), “Form B”; in data set [3] (Heptane, 25° C.), “Form B”; in data set [3] (Heptane, 50° C., additional solvent added), “Form B”. Moreover, the “XRPD form after competitive slurry” value in data set [3] (Toluene, 5° C.) is on record as “Form B”; in data set [3] (Toluene, 25° C.), “Form B”; in data set [3] (Toluene, 50° C.), “Form A”; in data set [3] (Toluene:Cyclohexane, 5° C.), “Form B”; in data set [3] (Toluene:Cyclohexane, 25° C.), “Form B”; in data set [3] (Toluene:Cyclohexane, 50° C.), “Form B”. For the same compound, the “XRPD form after competitive slurry” value is on record as “Form B” in data set [3] (Toluene:Heptane, 5° C.); “Form B” in data set [3] (Toluene:Heptane, 25° C.); “Form B” in data set [3] (Toluene:Heptane, 50° C., additional solvent added). In data set [3] (two anhydrous forms (Form A & Form B), under the investigated conditions), the “Most stable form in competitive slurries” value is reported as “Form B”.

These data come from patent US10414732B2, “Polymorphic compounds and uses thereof” (priority 2017, dated 2019).
